Reference: patent publication US20030133931A1 (priority 2001, published 2003)

What was measured:
[1] = molecular target: T1, human histamine H4 receptor (Homo sapiens, UniProt Q9H3N8); assay: biochemical
[2] = molecular target: guinea pig histamine H4 receptor (Cavia porcellus, UniProt Q91ZY3); assay: biochemical
[3] = molecular target: rat histamine H4 receptor (Rattus norvegicus, UniProt Q91ZY1); assay: biochemical
[4] = molecular target: T1, human histamine H4 receptor; details: histamine 100 pM-100 uM; forskolin 3 uM; SK-N-MC cells
[5] = system: Zymosan Induced Peritonitis in Mice; details: for effect on PMN influx: H4 ANTAG #1 10 mg/kg, Imetit 5 mg/kg, thioperamide 5 mg/kg, 4 h after zymosan; for PMN (10^6 per mouse) Mean: group mean, s.c. at -15 min and +2 h (H4 ANTAG #1 10 mg/kg; Imetit, Thioperamide 5 mg/kg), lavage 4 h after zymosan
[6] = system: Croton Oil Induced Topical Inflammation in Mice; details: 6 h after croton oil
[7] = molecular target: T1, human histamine H4 receptor; details: SK-N-MC or COS7 cells expressing human histamine H4 receptor

rat histamine H4 receptor, sequence (Q91ZY1 whole entry): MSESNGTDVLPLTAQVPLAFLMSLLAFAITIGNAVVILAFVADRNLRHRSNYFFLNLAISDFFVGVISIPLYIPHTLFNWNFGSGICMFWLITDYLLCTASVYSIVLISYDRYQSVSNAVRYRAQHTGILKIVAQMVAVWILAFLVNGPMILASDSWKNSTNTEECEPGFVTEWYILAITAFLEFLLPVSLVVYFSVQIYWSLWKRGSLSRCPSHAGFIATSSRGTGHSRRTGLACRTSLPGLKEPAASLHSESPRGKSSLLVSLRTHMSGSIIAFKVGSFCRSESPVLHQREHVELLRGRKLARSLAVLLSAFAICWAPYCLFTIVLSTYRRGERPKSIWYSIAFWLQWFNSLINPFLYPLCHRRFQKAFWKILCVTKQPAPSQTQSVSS
T1 sequence (Q9H3N8 whole entry): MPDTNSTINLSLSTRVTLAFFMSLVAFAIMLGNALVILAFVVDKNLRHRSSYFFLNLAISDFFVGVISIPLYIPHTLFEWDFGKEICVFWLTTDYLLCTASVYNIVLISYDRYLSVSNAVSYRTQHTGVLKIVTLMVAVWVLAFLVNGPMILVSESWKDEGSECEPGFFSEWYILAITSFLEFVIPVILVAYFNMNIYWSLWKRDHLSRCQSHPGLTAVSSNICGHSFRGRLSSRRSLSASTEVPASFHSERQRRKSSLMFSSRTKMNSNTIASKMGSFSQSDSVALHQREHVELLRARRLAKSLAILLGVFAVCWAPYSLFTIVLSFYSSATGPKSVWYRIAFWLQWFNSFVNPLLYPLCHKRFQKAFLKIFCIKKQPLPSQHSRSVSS
guinea pig histamine H4 receptor, sequence (Q91ZY3 1-389): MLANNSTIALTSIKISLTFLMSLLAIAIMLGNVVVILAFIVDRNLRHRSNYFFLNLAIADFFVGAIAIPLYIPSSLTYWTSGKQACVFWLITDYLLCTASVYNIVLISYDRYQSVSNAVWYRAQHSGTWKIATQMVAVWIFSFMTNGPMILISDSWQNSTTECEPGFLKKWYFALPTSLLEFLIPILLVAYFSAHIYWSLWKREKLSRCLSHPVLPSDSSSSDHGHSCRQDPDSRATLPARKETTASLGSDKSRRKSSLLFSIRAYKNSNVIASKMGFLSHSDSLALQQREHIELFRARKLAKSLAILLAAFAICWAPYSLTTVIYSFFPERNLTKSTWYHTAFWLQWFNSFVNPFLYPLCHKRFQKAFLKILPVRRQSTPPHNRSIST

Compound | Ki [1] [nM] | Ki [2] [nM] | Ki [3] [nM] | other results
NC(=NCc1ccc(Cl)cc1)SCCCc1cnc[nH]1 [Clobenpropit] | 4.9 | 3.6 | 63 | 
NCCc1c[nH]cn1 [Histamine] |  | 27 |  | activation of recombinant human histamine H4 receptor (decrease of forskolin-raised cAMP), words [4]: specifically activated
N=C(N)SCCc1cnc[nH]1 [Imetit] | 1.3 | 30 | 6.8 | effect on PMN influx [5]: inactive; PMN (10^6 per mouse) Mean [5]: 17.3 10^6 per mouse
COc1ccc2c(c1)c(CC(=O)O)c(C)n2C(=O)c1ccc(Cl)cc1 [Indomethacin] |  |  |  | Difference in ear thickness (×0.01 mm) Mean ([6]; group mean, s.c. ×3 (H4 ANTAG #1 10 mg/kg; Indomethacin 30 mg/kg)): 10.0 ×0.01 mm; % inhib (ear swelling) ([6]; vs vehicle, s.c. ×3): (−40%)
CNCCc1c[nH]cn1 [N-methylhistamine] | 48 | 220 | 552 | 
S=C(NC1CCCCC1)N1CCC(c2cnc[nH]2)CC1 [Thioperamide] |  | 83 |  | effect on PMN influx [5]: significant inhibitory effect; PMN (10^6 per mouse) Mean [5]: 9.3 10^6 per mouse; % inhib (PMN) ([5]; vs PBS + zymosan, 4 h, doses as in Table 1, s.c.): (−46%)
^3H-histamine |  |  |  | ^3H-histamine binding [7]: high affinity
